US9249151B2, “Bis-amido pyridines” (Boehringer Ingelheim International GmbH, priority 2013, dated 2016)

molecular target: BIR3 domain of human cIAP1 (amino acids 256 to 363; cIAP1 BIR3) (Homo sapiens (Human), UniProt Q13490); assay: cIAP1 BIR3 binding assay (DELFIA); conditions: not given
Procedure: XIAP BIR3 and cIAP1 BIR3 Binding Assays (DELFIA)
Peptide […]-Lys(Biotin), representing the N-terminus of mature human SMAC (SMAC peptide), was used as interaction partner in the protein-peptide interaction assay.
BIR3 domains (10 nM) were incubated with SMAC peptide (10 nM) in assay buffer (50 mM Tris, 120 mM NaCl, 0.1% BSA, 1 mM DTT, 0.05% TritonX100) for one hour at room temperature in the presence of inhibitory compounds. The assay mixture was transferred to a streptavidin coated plate and incubated for one hour at room temperature to allow binding of the biotinylated peptide and associated BIR3 domains to the plate. After several washing steps Eu labeled anti-GST antibody (e.g. Perkin Elmer DELFIA Eu-N1-antiGST AD0250) was added to detect BIR3 domain-SMAC peptide interactions m according to Perkin Elmer's instructions. […] Time resolved Europium fluoresecence was measured in a Wallac Victor using Standard assay settings.
DELFIA assay results were plotted against compound concentrations and Software GraphPad Prizm was used to calculate half maximal inhibitory concentrations (IC50 values).

BIR3 domain of human cIAP1 (amino acids 256 to 363; cIAP1 BIR3), sequence (Q13490 256-363): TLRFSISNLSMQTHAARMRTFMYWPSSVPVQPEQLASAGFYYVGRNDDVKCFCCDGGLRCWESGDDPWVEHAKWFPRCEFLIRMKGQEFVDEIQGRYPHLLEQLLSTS

| IC50 [µM] | Compound |
| --- | --- |
| 0.034 | CNC(C)C(=O)Nc1cc(-c2nc(C)nc3c(C)nn(C)c23)cc(NC(=O)c2ncc(Cl)cc2C)n1 (centres unmarked) [Example 60, 5-chloro-3-methyl-N-{6-[2-(methylamino)propanamido]-4-{trimethyl-1H-pyrazolo-[4,3-d]pyrimidin-7-yl}-pyridin-2-yl}pyridine-2-carboxamide] |

same assay, conditions: BIR3 domain 10 nM, SMAC peptide 10 nM; values represent the (S)-isomers; * = racemic compound; read-out: cIAP1 BIR-3 IC50

| Compound | IC50 [µM] |
| --- | --- |
| CNC(C)C(=O)Nc1cc(-c2c(C)ccc3ncccc23)cc(NC(=O)c2ncc3ccccc3n2)n1 (centres unmarked) [Example 31, N-{6-[2-(methylamino)propanamido]-4-(6-methylquinolin-5-yl)pyridin-2-yl}quinazoline-2-carboxamide] | 0.052 |
| CNC(C)C(=O)Nc1cc(-c2c(C)ccc3ncccc23)cc(NC(=O)c2cc3ccccc3cn2)n1 (centres unmarked) [Example 35, N-{6-[2-(methylamino)propanamido]-4-(6-methylquinolin-5-yl)pyridin-2-yl}isoquinoline-3-carboxamide] | 0.132 |
| CNC(C)C(=O)Nc1cc(-c2c(C)ccc3ncccc23)cc(NC(=O)c2ccc3ccccc3n2)n1 (centres unmarked) [Example 36, N-{6-[2-(methylamino)propanamido]-4-(6-methylquinolin-5-yl)pyridin-2-yl}quinoline-2-carboxamide] | 0.17 |
| CNC(C)C(=O)Nc1cc(-c2c(C)ccc3ncccc23)cc(NC(=O)c2cc3ccccc3o2)n1 (centres unmarked) [Example 38, N-{6-[2-(methylamino)propanamido]-4-(6-methylquinolin-5-yl)pyridin-2-yl)-1-benzofuran-2-carboxamide] | 0.514 |
| CNC(C)C(=O)Nc1cc(-c2c(C)ccc3ncccc23)cc(NC(=O)c2ccccn2)n1 (centres unmarked) [Example 39, N-{6-[2-(methylamino)propanamido]-4-(6-methylquinolin-5-yl)pyridin-2-yl}pyridine-2-carboxamide] | 0.553 |
| CNC(C)C(=O)Nc1cc(-c2c(C)ccc3ncccc23)cc(NC(=O)c2cccnn2)n1 (centres unmarked) [Example 43, N-{6-[2-(methylamino)propanamido]-4-(6-methylquinolin-5-yl)pyridin-2-yl}pyridazine-3-carboxamide] | 2.6 |
| CNC(C)C(=O)Nc1cc(-c2c(C)ccc3ncccc23)cc(NC(=O)c2ccc3cnccc3c2)n1 (centres unmarked) [Example 44, N-{6-[2-(methylamino)propanamido]-4-(6-methylquinolin-5-yl)pyridin-2-yl}isoquinoline-6-carboxamide] | 3.19 |
| CNC(C)C(=O)Nc1cc(-c2c(C)ccc3ncccc23)cc(NC(=O)c2cc(-c3ccccc3)on2)n1 (centres unmarked) [Example 46, N-{6-[2-(methylamino)propanamido]-4-(6-methylquinolin-5-yl)pyridin-2-yl}-5-phenyl-1,2-oxazole-3-carboxamide] | 6.33 |
| CNC(C)C(=O)Nc1cc(-c2cccc3nc(C)c(C)n23)cc(NC(=O)c2cc3c(cn2)COC3)n1 (centres unmarked) [Example 48, N-(4-{2,3-dimethylimidazo[1,2-a]pyridin-5-yl}-6-[2-(methylamino)propanamido]pyridin-2-yl)-1H,3H-furo[3,4-c]pyridine-6-carboxamide] | 0.001 |
| CNC(C)C(=O)Nc1cc(-c2cccc3nc(C)c(C)n23)cc(NC(=O)Cc2ccccc2)n1 (centres unmarked) [Example 49, N-(4-{2,3-dimethylimidazo[1,2-a]pyridin-5-yl}-6-(2-phenylacetamido)pyridin-2-yl)-2-(methylamino)propanamide] | 5.35 |
| CNC(C)C(=O)Nc1cc(-c2cccc3nc(C)c(C)n23)cc(NC(=O)c2cc3ccccc3[nH]2)n1 (centres unmarked) [Example 50, N-(4-{2,3-dimethylimidazo[1,2-a]pyridin-5-yl}-6-[2-(methylamino)propanamido]pyridin-2-yl)-1H-indole-2-carboxamide] | 0.348 |
| CC(N)C(=O)Nc1cc(Cl)cc(NC(=O)c2ccccn2)n1 (centres unmarked) [Example 56, N-[6-(2-aminopropanamido)-4-chloropyridin-2-yl]pyridine-2-carboxamide] | 4.6 |
| Cc1ccc(C(=O)Nc2cccc(NC(=O)C(C)N)n2)nc1 (centres unmarked) [Example 57, N-[6-(2-aminopropanamido)pyridin-2-yl]-5-methylpyridine-2-carboxamide] | 0.421 |
| CNC(C)C(=O)Nc1cc(-c2ncnc3c(C)nn(C)c23)cc(NC(=O)c2ncc(Cl)cc2C)n1 (centres unmarked) [Example 61, 5-chloro-N-(4-{1,3-dimethyl-1H-pyrazolo[4,3-d]pyrimidin-7-yl}-6-[2-(methylamino)-propanamido]pyridin-2-yl)-3-methylpyridine-2-carboxamide] | 0.001 |
| CNC(C)C(=O)Nc1cc(-c2nc(C)nc3c(C)nn(C)c23)cc(NC(=O)c2ncc(Cl)cc2F)n1 (centres unmarked) [Example 62, 5-chloro-3-fluoro-N-{6-[2-(methylamino)propanamido]-4-{trimethyl-1H-pyrazolo-[4,3-d]pyrimidin-7-yl}-pyridin-2-yl)pyridine-2-carboxamide] | 0.001 |

Second part, the compound after the results:

| IC50 [µM] | Compound |
| --- | --- |
| 0.036 | CNC(C)C(=O)Nc1cc(-c2c(C)ccc3ncccc23)cc(NC(=O)c2ccc(C#N)cn2)n1 (centres unmarked) [Example 30, 5-cyano-N-{6-[2-(methylamino)propanamido]-4-(6-methylquinolin-5-yl)pyridin-2-yl}pyridine-2-carboxamide] |
| 0.053 | CNC(C)C(=O)Nc1cc(-c2c(C)ccc3ncccc23)cc(NC(=O)c2ccc(F)cn2)n1 (centres unmarked) [Example 32, 5-fluoro-N-{6-[2-(methylamino)propanamido]-4-(6-methylquinolin-5-yl)pyridin-2-yl}pyridine-2-carboxamide] |
| 0.059 | CNC(C)C(=O)Nc1cc(-c2c(C)ccc3ncccc23)cc(NC(=O)c2ccc(OC)cn2)n1 (centres unmarked) [Example 33, 5-methoxy-N-{6-[2-(methylamino)propanamido]-4-(6-methylquinolin-5-yl)pyridin-2-yl}pyridine-2-carboxamide] |
| 0.104 | CNC(C)C(=O)Nc1cc(-c2c(C)ccc3ncccc23)cc(NC(=O)c2cnc(C)cn2)n1 (centres unmarked) [Example 34, 5-methyl-N-{6-[2-(methylamino)propanamido]-4-(6-methylquinolin-5-yl)pyridin-2-yl}pyrazine-2-carboxamide] |
| 0.428 | CNC(C)C(=O)Nc1cc(-c2c(C)ccc3ncccc23)cc(NC(=O)c2ccncn2)n1 (centres unmarked) [Example 37, N-{6-[2-(methylamino)propanamido]-4-(6-methylquinolin-5-yl)pyridin-2-yl)pyrimidine-4-carboxamide] |
| 0.598 | CNC(C)C(=O)Nc1cc(-c2c(C)ccc3ncccc23)cc(NC(=O)c2cccc(C)n2)n1 (centres unmarked) [Example 40, 6-methyl-N-{6-[2-(methylamino)propanamido]-4-(6-methylquinolin-5-yl)pyridin-2-yl}pyridine-2-carboxamide] |
| 0.703 | CNC(C)C(=O)Nc1cc(-c2c(C)ccc3ncccc23)cc(NC(=O)c2ccn(C)n2)n1 (centres unmarked) [Example 41, 1-methyl-N-{6-[2-(methylamino)propanamido]-4-(6-methylquinolin-5-yl)pyridin-2-yl}-1H-pyrazole-3-carboxamide] |
| 1.19 | CNC(C)C(=O)Nc1cc(-c2c(C)ccc3ncccc23)cc(NC(=O)c2cc(Cl)ccn2)n1 (centres unmarked) [Example 42, 4-chloro-N-{6-[2-(methylamino)propanamido]-4-(6-methylquinolin-5-yl)pyridin-2-yl}pyridine-2-carboxamide] |
| 4.94 | CNC(C)C(=O)Nc1cc(-c2c(C)ccc3ncccc23)cc(NC(=O)c2cn(C)cn2)n1 (centres unmarked) [Example 45, 1-methyl-N-{6-[2-(methylamino)propanamido]-4-(6-methylquinolin-5-yl)pyridin-2-yl}-1H-imidazole-4-carboxamide] |
| 0.017 | CNC(C)C(=O)Nc1cc(-c2ccncc2C)cc(NC(=O)c2ccc(Cl)cn2)n1 (centres unmarked) [Example 47, 5-chloro-N-{6-[2-(methylamino)propanamido]-4-(3-methylpyridin-4-yl)pyridin-2-yl}pyridine-2-carboxamide] |
| 0.001 | CNC(C)C(=O)Nc1cc(-c2cccc3nc(C)c(C)n23)cc(NC(=O)c2ccc(OC)cn2)n1 (centres unmarked) [Example 51, N-(4-{2,3-dimethylimidazo[1,2-a]pyridin-5-yl}-6-[2-(methylamino)propanamido]pyridin-2-yl)-5-methoxypyridine-2-carboxamide] |
| 0.001 | CNC(C)C(=O)Nc1cc(-c2cncc3ccn(C)c23)cc(NC(=O)c2ccc(Cl)cn2)n1 (centres unmarked) [Example 52, 5-chloro-N-(4-{1-methyl-1H-pyrrolo[3,2-c]pyridin-7-yl}-6-[2-(methylamino)propanamido]pyridin-2-yl)pyridine-2-carboxamide] |
| 0.001 | CNC(C)C(=O)Nc1cc(-c2cccc3cncc(C)c23)cc(NC(=O)c2ccc(Cl)cn2)n1 (centres unmarked) [Example 53] |
| 0.011 | CNC(C)C(=O)Nc1cc(-c2c(Cl)cnc3ccccc23)cc(NC(=O)c2ccc(Cl)cn2)n1 (centres unmarked) [Example 54, 5-chloro-N-[4-(3-chloroquinolin-4-yl)-6-[2-(methylamino)propanamido]pyridin-2-yl]pyridine-2-carboxamide] |
| 0.045 | Cc1cccc2ccn(-c3cc(NC(=O)c4ccc(Cl)cn4)nc(NC(=O)C(C)N)c3)c12 (centres unmarked) [Example 55, N-[6-(2-aminopropanamido)-4-(7-methyl-1H-indol-1-yl)pyridin-2-yl]-5-chloropyridine-2-carboxamide] |
| 0.001 | CNC(C)C(=O)Nc1cc(-c2nc(C)nc3c(C)c(C)n(C)c23)cc(NC(=O)c2ccc(Cl)cn2)n1 (centres unmarked) [Example 59, 5-chloro-N-{6-[2-(methylamino)propanamido]-4-{tetramethyl-5H-pyrrolo[3,2-d]pyrimidin-4-yl}pyridin-2-yl}pyridine-2-carboxamide] |
